Consider 21 molecules from patent US20250034150A1, “BTK INHIBITORS” (BIOGEN MA INC., priority 2021, published 2025).

Structures can show the parent of a compound that is named as a salt. Where two headings read alike, the source gives them in different places.

One test has as its target T1, BTK (Homo sapiens, UniProt Q06187).
T1 construct: purchased Upstate 14-552
As to the kind of experiment: In Vitro BTK Kinase Assay: Btk-PolyGAT-LS Assay. The format is biochemical. Conditions: active BTK enzyme 0.25 nM, polyGAT 100 nM, 30 minutes, TRF readout; read-out: In Vitro BTK Kinase Assay IC50 Score. On the procedure:
The purpose of the BTK in vitro assay is to determine compound potency against BTK through the measurement of IC50. Compound inhibition is measured after monitoring the amount of phosphorylation of a fluorescein-labeled polyGAT peptide (Invitrogen PV3611) in the presence of active BTK enzyme (Upstate 14-552), ATP, and inhibitor. The BTK kinase reaction was done in a black 96 well plate (costar 3694). For a typical assay, a 24 μL aliquot of a ATP/peptide master mix (final concentration; ATP […], polyGAT 100 nM) in kinase buffer (10 mM Tris-HCl pH 7.5, 10 mM MgCl2, 200 μM […], 5 mM DTT, 0.01% Triton X-100, and 0.2 mg/ml casein) is added to each well. Next, […] of a 4-fold, 40× compound titration in 100% DMSO solvent is added, followed by adding 15 μL of BTK enzyme mix in 1× kinase buffer (with a final concentration of 0.25 nM). The assay is incubated for 30 minutes before being stopped with 28 μL of a 50 mM EDTA solution. Aliquots (5 uL) of the kinase reaction are transferred to a low volume white 384 well plate (Coming 3674), and 5 μL of a 2× detection buffer (Invitrogen PV3574, with 4 nM Tb—PY20 antibody, Invitrogen PV3552) is added. The plate is covered and incubated for 45 minutes at room temperature. Time resolved fluorescence (TRF) on Molecular Devices M5 (332 nm excitation; 488 nm emission; 518 nm fluorescein emission) is measured. IC50 values are calculated using a four parameter fit with 100% enzyme activity determined from the DMSO control and 0% activity from the EDTA control.

Test [1] relates to CD69 expression on CD19+ B cells in human whole blood. The test can be described thus: In Vitro whole blood CD69 Assay. The format is cell-based. The following applies: B-cell, read-out: In Vitro HWB CD69 Assay IC50 Score. On the procedure:
Human heparinized venous blood from health donors was aliquoted into 96-well plate and “spiked” with serial dilutions of formula I compounds in DMSO or with DMSO without drug. The final concentration of DMSO in all wells was 0.1%. The plate was incubated at 37° C. for 30 min. Drug-containing samples were stimulated with 0.1 μg/mL mouse anti-human IgD-dextran (1A62) or 20 μg/mL polyclonal rabbit F(ab′)2 anti-human IgD. Phosphate-buffered saline (PBS) was added to the negative control unstimulated sample and the plates were incubated overnight (18 to 22 hours) at 37° C. Cells were stained with fluorochrome-conjugated anti-CD19 and anti-CD69 antibodies. Lyse/fix solution was used to remove red blood cells by hypotonic lysis and to fix the remaining cells, which were then analyzed by flow cytometry. CD19+ B cells were gated and analyzed for CD69 expression.

Where [2] appears, read: human heparinized whole blood, anti-human IgD stimulation overnight, CD19+ B cells, flow cytometry.

T1 sequence (Q06187 whole entry): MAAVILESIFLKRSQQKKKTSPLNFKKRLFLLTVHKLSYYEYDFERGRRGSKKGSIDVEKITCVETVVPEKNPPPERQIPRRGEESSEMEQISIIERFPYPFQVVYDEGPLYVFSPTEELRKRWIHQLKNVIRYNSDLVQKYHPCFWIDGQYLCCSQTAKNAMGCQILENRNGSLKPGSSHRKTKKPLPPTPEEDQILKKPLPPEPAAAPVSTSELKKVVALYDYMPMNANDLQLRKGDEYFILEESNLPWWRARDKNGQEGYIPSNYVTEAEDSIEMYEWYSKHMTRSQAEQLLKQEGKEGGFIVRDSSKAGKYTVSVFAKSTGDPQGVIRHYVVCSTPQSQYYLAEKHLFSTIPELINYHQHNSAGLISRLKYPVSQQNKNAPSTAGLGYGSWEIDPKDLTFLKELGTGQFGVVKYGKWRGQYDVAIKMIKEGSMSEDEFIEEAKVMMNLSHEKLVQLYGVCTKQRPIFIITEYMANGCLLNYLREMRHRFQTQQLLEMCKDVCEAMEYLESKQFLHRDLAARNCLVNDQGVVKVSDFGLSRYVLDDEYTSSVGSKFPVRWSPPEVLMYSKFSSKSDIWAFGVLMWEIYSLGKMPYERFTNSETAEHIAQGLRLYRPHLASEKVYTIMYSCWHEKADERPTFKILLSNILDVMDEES

Turning to `CC1CC(CNC(=O)c2noc(C3(C)CC3)n2)CCN1c1nc(-c2cnn(C)c2)cn2nccc12` (stereo not drawn) [Example 139, N-((2-methyl-1-(6-(1-methyl-1H-pyrazol-4-yl)pyrazolo[1,5-a]pyrazin-4-yl)piperidin-4-yl)methyl)-5-(1-methylcyclopropyl)-1,2,4-oxadiazole-3-carboxamide], the concentration for half-maximal inhibition (IC50) (in general, the midpoint of a concentration-inhibition curve) on BTK fell in the range of 0.001 to 0.01 µM; in test [1] (setting [2]), 1 to 10 µM.
On to `Cc1cc(-c2nc(-c3cnn(C)c3)cn3nccc23)ccc1CN1CCN(CC(C)(C)C)CC1=O` [Example 31, 1-(2-methyl-4-(6-(1-methyl-1H-pyrazol-4-yl)pyrazolo[1,5-a]pyrazin-4-yl)benzyl)-4-neopentylpiperazin-2-one], for which the IC50 lay in the range of 0.001 to 0.01 µM on BTK and 1 to 10 µM in test [1] (setting [2]).
With `COCCOc1cn2nccc2c(-c2ccc(CNC(=O)c3cn(C(C)(C)C)nn3)c(C)c2)n1` [Example 122, 1-(tert-butyl)-N-(4-(6-(2-methoxyethoxy)pyrazolo[1,5-a]pyrazin-4-yl)-2-methylbenzyl)-1H-1,2,3-triazole-4-carboxamide], the IC50 at BTK was 0.001 to 0.01 µM; in test [1] (setting [2]), below 1 µM.
In the same order, the values of `Cn1cc(-c2cn3nccc3c(N3CCC(C)(CNC(=O)c4cnc(C(C)(C)C)o4)CC3)n2)cn1` [Example 45, 2-(tert-butyl)-N-((4-methyl-1-(6-(1-methyl-1H-pyrazol-4-yl)pyrazolo[1,5-a]pyrazin-4-yl)piperidin-4-yl)methyl)oxazole-5-carboxamide] are 0.01 to 1 µM and 1 to 10 µM.
Consider `Cn1cc(-c2cn3nccc3c(-c3ccc(CN4CCN(CC(C)(C)C)CC4=O)c(F)c3)n2)cn1` [Example 35, 1-(2-fluoro-4-(6-(1-methyl-1H-pyrazol-4-yl)pyrazolo[1,5-a]pyrazin-4-yl)benzyl)-4-neopentylpiperazin-2-one], for which the IC50 on BTK was 0.001 to 0.01 µM; in test [1] (setting [2]), 1 to 10 µM.
`Cn1cc(-c2cn3nccc3c(N3CCC(F)(CNC(=O)c4noc(C5(C)CC5)n4)CC3)n2)cn1` [Example 161, N-((4-fluoro-1-(6-(1-methyl-1H-pyrazol-4-yl)pyrazolo[1,5-a]pyrazin-4-yl)piperidin-4-yl)methyl)-5-(1-methylcyclopropyl)-1,2,4-oxadiazole-3-carboxamide trifluoroacetate]: the IC50 is 0.001 to 0.01 µM at BTK and 1 to 10 µM in test [1] (setting [2]).
The corresponding values for `Cn1cc(-c2cc3nccn3c(-c3ccc(CNC(=O)c4nnc(C(C)(C)C)o4)cc3)n2)cn1` [Example 61, 5-(tert-butyl)-N-(4-(7-(1-methyl-1H-pyrazol-4-yl)imidazo[1,2-c]pyrimidin-5-yl)benzyl)-1,3,4-oxadiazole-2-carboxamide] are 0.01 to 1 µM and 1 to 10 µM.
As for `Cn1cc(-c2cn3nccc3c(-c3ccc(CNC(=O)c4noc(C(C)(C)C)n4)nc3)n2)cn1` [Example 116, 5-(tert-butyl)-N-((5-(6-(1-methyl-1H-pyrazol-4-yl)pyrazolo[1,5-a]pyrazin-4-yl)pyridin-2-yl)methyl)-1,2,4-oxadiazole-3-carboxamide], the figures for the IC50 (on BTK; in test [1] (setting [2])) were 0.001 to 0.01 µM and 1 to 10 µM, respectively.
`Cn1cc(-c2cn3nccc3c(N3CC[C@H](CNC(=O)c4coc(C(C)(C)C)n4)[C@H](F)C3)n2)cn1` [Example 153, 2-(tert-butyl)-N-(((3S,4R)-3-fluoro-1-(6-(1-methyl-1H-pyrazol-4-yl)pyrazolo[1,5-a]pyrazin-4-yl)piperidin-4-yl)methyl)oxazole-4-carboxamide]: the half-maximal inhibitory concentration (IC50) lay in the range of 0.001 to 0.01 µM on BTK and 1 to 10 µM in test [1] (setting [2]).
On to `Cn1cc(-c2cc3nccn3c(-c3ccc(CNC(=O)c4noc(C5(C)CC5)n4)cc3)n2)cn1` [Example 60, N-(4-(7-(1-methyl-1H-pyrazol-4-yl)imidazo[1,2-c]pyrimidin-5-yl)benzyl)-5-(1-methylcyclopropyl)-1,2,4-oxadiazole-3-carboxamide], for which the half-inhibitory concentration (IC50) at BTK lay in the range of 0.001 to 0.01 µM; in test [1] (setting [2]) it was 1 to 10 µM.
In the case of `Cn1cc(-c2cn3nccc3c(-c3cc(F)c(CNC(=O)c4nc(C(C)(C)C)no4)cc3F)n2)cn1` [Example 94, 3-(tert-butyl)-N-(2,5-difluoro-4-(6-(1-methyl-1H-pyrazol-4-yl)pyrazolo[1,5-a]pyrazin-4-yl)benzyl)-1,2,4-oxadiazole-5-carboxamide], the 50% inhibitory concentration (IC50) at BTK was below 0.001 µM; in test [1] (setting [2]) it was below 1 µM.
As to `Cn1cc(-c2cn3nccc3c(-c3ccc(CNC(=O)c4nnn(C(C)(C)C)n4)cc3)n2)cn1` [Example 3, 2-(tert-butyl)-N-(4-(6-(1-methyl-1H-pyrazol-4-yl)pyrazolo[1,5-a]pyrazin-4-yl)benzyl)-2H-tetrazole-5-carboxamide], the IC50 is below 0.001 µM at BTK and below 1 µM in test [1] (setting [2]).
Regarding `Cn1cc(-c2cn3nccc3c(-c3cc(F)c(CNC(=O)c4cnn(C(C)(C)C)n4)cc3F)n2)cn1` [Example 97, 2-(tert-butyl)-N-(2,5-difluoro-4-(6-(1-methyl-1H-pyrazol-4-yl)pyrazolo[1,5-a]pyrazin-4-yl)benzyl)-2H-1,2,3-triazole-4-carboxamide], the figures for the IC50 (on BTK; in test [1] (setting [2])) were 0.001 to 0.01 µM and 1 to 10 µM, respectively.
Consider `Cn1cc(-c2cn3nccc3c(N3CCC(CNC(=O)c4noc(C(C)(C)C)n4)CC3)n2)cn1` [Example 136, 5-(tert-butyl)-N-((1-(6-(1-methyl-1H-pyrazol-4-yl)pyrazolo[1,5-a]pyrazin-4-yl)piperidin-4-yl)methyl)-1,2,4-oxadiazole-3-carboxamide], for which the IC50 is 0.001 to 0.01 µM on BTK and below 1 µM in test [1] (Homo sapiens).
In the case of `Cn1cc(-c2cn3nccc3c(-c3ccc(CNC(=O)c4nnn(C(C)(C)C)n4)nc3)n2)cn1` [Example 115, 2-(tert-butyl)-N-((5-(6-(1-methyl-1H-pyrazol-4-yl)pyrazolo[1,5-a]pyrazin-4-yl)pyridin-2-yl)methyl)-2H-tetrazole-5-carboxamide], the IC50 at BTK is 0.001 to 0.01 µM; in test [1] (setting [2]) it was 1 to 10 µM.
In the same order, the values of `Cn1cc(-c2cc3nccn3c(-c3ccc(CNC(=O)c4cn(C(C)(C)C)nn4)cc3)n2)cn1` [Example 59, 1-(tert-butyl)-N-(4-(7-(1-methyl-1H-pyrazol-4-yl)imidazo[1,2-c]pyrimidin-5-yl)benzyl)-1H-1,2,3-triazole-4-carboxamide] are 0.001 to 0.01 µM and below 1 µM.
For `CC(C)(C)c1nc(C(=O)NCc2ccc(-c3nccn4nccc34)cc2Cl)no1` [Example 82, 5-(tert-butyl)-N-(2-chloro-4-(pyrazolo[1,5-a]pyrazin-4-yl)benzyl)-1,2,4-oxadiazole-3-carboxamide], the half-maximal inhibitory concentration (IC50) at BTK is 0.001 to 0.01 µM; in test [1] (setting [2]) it was 1 to 10 µM.
The corresponding values for `Cn1cc(-c2cn3nccc3c(-c3ccc(CNC(=O)c4cn(C(C)(C)C)nn4)c(F)c3)n2)cn1` [Example 9, 1-(tert-butyl)-N-(2-fluoro-4-(6-(1-methyl-1H-pyrazol-4-yl)pyrazolo[1,5-a]pyrazin-4-yl)benzyl)-1H-1,2,3-triazole-4-carboxamide] are below 0.001 µM and below 1 µM.
The corresponding values for `Cc1cc(-c2nc(-c3cnn(C)c3)cn3nccc23)ccc1CNC(=O)c1noc(C(C)(C)C)n1` [Example 80, 5-(tert-butyl)-N-(2-methyl-4-(6-(1-methyl-1H-pyrazol-4-yl)pyrazolo[1,5-a]pyrazin-4-yl)benzyl)-1,2,4-oxadiazole-3-carboxamide] are below 0.001 µM and below 1 µM.
The corresponding values for `Cc1cc(-c2nc(-c3cnn(C)c3)cn3nccc23)ccc1CNC(=O)c1nnn(C(C)(C)C)n1` [Example 15, 2-(tert-butyl)-N-(2-methyl-4-(6-(1-methyl-1H-pyrazol-4-yl)pyrazolo[1,5-a]pyrazin-4-yl)benzyl)-2H-tetrazole-5-carboxamide] are below 0.001 µM and below 1 µM.
Consider `Cc1cc(-c2cc(-c3cnn(C)c3)cn3nccc23)ccc1CNC(=O)c1cn(C(C)(C)C)nn1` [Example 66, 1-(tert-butyl)-N-(2-methyl-4-(6-(1-methyl-1H-pyrazol-4-yl)pyrazolo[1,5-a]pyridin-4-yl)benzyl)-1H-1,2,3-triazole-4-carboxamide], for which the IC50 on BTK was below 0.001 µM; in test [1] (setting [2]), below 1 µM.
